The record followed here is patent publication US20060223996A1, “IL-12 modulatory compounds” (Synta Pharmaceuticals Corp., priority 2004, published 2006).

In the test the test system is IL-12. As to the kind of experiment: Human in vitro assay: inhibition of IL-12 production in IFNγ/LPS- or IFNγ/SAC-stimulated human PBMC or THP-1 cells (ELISA). It is filed as cell-based. The conditions noted are these: read-out: IC50 Range (representative in vitro IC50 data). The essentials:
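PBMC (5×10^5 cells/well) primed with IFNγ 30 U/mL for 22 h then LPS 1 μg/mL, or IFNγ 100 U/mL then SAC 0.01%; THP-1 primed with IFNγ 100 U/mL for 22 h then SAC 0.025%, with compound in 0.25% DMSO. Supernatant IL-12 p70/p40 measured by sandwich ELISA after 18 h; IC50 derived; viability by MTS.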
On the technique in general: ELISA stands for enzyme-linked immunosorbent assay.
One may read the IC50 as the concentration that gives 50% inhibition. `Cc1cccc(NC(=O)c2cc(OCCN3CCOC3=O)nc(N3CCOCC3)n2)c1` [Compound 44, 2-Morpholin-4-yl-6-[2-(2-oxo-oxazolidin-3-yl)-ethoxy]-pyrimidine-4-carboxylic acid m-tolylamide]: the IC50 is not below 1000 nM.

As for `Cc1cc(NC(=O)c2cc(OCCN3CCOCC3)nc(N3CCOCC3)n2)no1` [Compound 48, 2-Morpholin-4-yl-6-(2-morpholin-4-yl-ethoxy)-pyrimidine-4-carboxylic acid (5-methyl-isoxazol-3-yl)-amide], the 50% inhibitory concentration (IC50) is not below 1000 nM.

Regarding `O=C(Nc1cc(OCCN2CCOCC2)nc(N2CCOCC2)n1)Nc1cccc2c(O)cccc12` [Compound 138, 1-(5-Hydroxy-naphthalen-1-yl)-3-[2-morpholin-4-yl-6-(2-morpholin-4-yl-ethoxy)-pyrimidin-4-yl]-urea], the half-inhibitory concentration (IC50) was not below 1000 nM.

Regarding `COCCN(C)c1cc(C(=O)Nc2cc(C)ns2)nc(N2CCOCC2)n1` [Compound 239, 6-[(2-Methoxy-ethyl)-methyl-amino]-2-morpholin-4-yl-pyrimidine-4-carboxylic acid (3-methyl-isothiazol-5-yl)-amide], the IC50 was not below 1000 nM.

Regarding `Cc1[nH]c2ccc(NC(=O)c3cc(N(CCO)CCO)nc(N4CCOCC4)n3)cc2c1C` [Compound 91, 6-[Bis-(2-hydroxy-ethyl)-amino]-2-morpholin-4-yl-pyrimidine-4-carboxylic acid (2,3-dimethyl-1H-indol-5-yl)-amide], the IC50 is less than 1000 nM.

In the case of `Cc1[nH]c2ccc(NC(=O)Nc3cc(N4CCN(c5ccccn5)CC4)nc(N4CCOCC4)n3)cc2c1C` [Compound 268, 1-(2,3-dimethyl-1H-indol-5-yl)-3-(2-morpholino-6-(4-(pyridin-2-yl)piperazin-1-yl)pyrimidin-4-yl)urea], the IC50 is less than 1000 nM.

In the case of `Cc1[nH]c2ccc(NC(=O)c3cc(N4CCOCC4)cc(N4CCOCC4)n3)cc2c1C` [Compound 30, 4,6-Di-morpholin-4-yl-pyridine-2-carboxylic acid (2,3-dimethyl-1H-indol-5-yl)-amide], the concentration for half-maximal inhibition (IC50) is less than 1000 nM.

As for `O=C(Nc1ccc2c(c1)NCCC2)c1cc(OCCN2CCOCC2)nc(N2CCOCC2)n1` [Compound 296, 2-Morpholin-4-yl-6-(2-morpholin-4-yl-ethoxy)-pyrimidine-4-carboxylic acid (1,2,3,4-tetrahydro-quinolin-7-yl)-amide], the IC50 is not below 1000 nM.

As to `Cc1[nH]c2ccc(NC(=O)c3cc(N4CCN(c5ccccn5)CC4)nc(N4CCOCC4)n3)cc2c1C` [Compound 90, 2-Morpholin-4-yl-6-(4-pyridin-2-yl-piperazin-1-yl)-pyrimidine-4-carboxylic acid (2,3-dimethyl-1H-indol-5-yl)-amide], the concentration for half-maximal inhibition (IC50) was less than 1000 nM.

With `COCCNC(=O)CNc1cc(C(=O)Nc2ccc3[nH]c(C)c(C)c3c2)nc(N2CCOCC2)n1` [Compound 98, 6-{[(2-Methoxy-ethylcarbamoyl)-methyl]-amino}-2-morpholin-4-yl-pyrimidine-4-carboxylic acid (2,3-dimethyl-1H-indol-5-yl)-amide], the half-inhibitory concentration (IC50) was less than 1000 nM.

On to `CC1CCc2ccc(NC(=O)c3cc(OCCN4CCOCC4)nc(N4CCOCC4)n3)cc2N1` (stereo not drawn) [Compound 299, 2-Morpholin-4-yl-6-(2-morpholin-4-yl-ethoxy)-pyrimidine-4-carboxylic acid (2-methyl-1,2,3,4-tetrahydro-quinolin-7-yl)-amide], for which the 50% inhibitory concentration (IC50) was not below 1000 nM.

Regarding `C/C(=N\N(C)C)c1cccc(NC(=O)c2cc(OCCN3CCOCC3)nc(N3CCOCC3)n2)c1` [Compound 153, (E)-N-(3-(1-(2,2-dimethylhydrazono)ethyl)phenyl)-2-morpholino-6-(2-morpholinoethoxy)pyrimidine-4-carboxamide], the half-inhibitory concentration (IC50) was less than 1000 nM.

Regarding `CCc1c(C)[nH]c2ccc(NC(=O)c3cc(N4CCC(O)CC4)nc(N4CCOCC4)n3)cc12` [Compound 177, 6-(4-Hydroxy-piperidin-1-yl)-2-morpholin-4-yl-pyrimidine-4-carboxylic acid (3-ethyl-2-methyl-1H-indol-5-yl)-amide], the IC50 was less than 1000 nM.

As to `CN(C)c1ccc(NC(=O)c2cc(OCCN3CCOCC3)nc(N3CCOCC3)n2)cc1` [Compound 57, 2-Morpholin-4-yl-6-(2-morpholin-4-yl-ethoxy)-pyrimidine-4-carboxylic acid (4-dimethylamino-phenyl)-amide], the IC50 was not below 1000 nM.

Take `Cc1cccc(NNC(=O)c2cc(N3CCOCC3)nc(OCCN3CCOCC3)n2)c1` [Compound 80, 6-Morpholin-4-yl-2-(2-morpholin-4-yl-ethoxy)-pyrimidine-4-carboxylic acid N′-m-tolyl-hydrazide]: the half-inhibitory concentration (IC50) is less than 1000 nM.

Turning to `Cc1[nH]c2ccc(NC(=O)c3cc(NCC(=O)N4CCC(C(N)=O)CC4)nc(N4CCOCC4)n3)cc2c1C` [Compound 99, 6-[2-(4-Carbamoyl-piperidin-1-yl)-2-oxo-ethylamino]-2-morpholin-4-yl-pyrimidine-4-carboxylic acid (2,3-dimethyl-1H-indol-5-yl)-amide], the 50% inhibitory concentration (IC50) was less than 1000 nM.

Take `CC(=O)N1CCN(c2cc(NC(=O)Nc3ccc4[nH]c(C)c(C)c4c3)nc(N3CCOCC3)n2)CC1` [Compound 264, 1-(6-(4-acetylpiperazin-1-yl)-2-morpholinopyrimidin-4-yl)-3-(2,3-dimethyl-1H-indol-5-yl)urea]: the IC50 was less than 1000 nM.

Turning to `COCCN(C)c1cc(C(=O)Nc2ccc3c(c2)N(C)CC3)nc(N2CCOCC2)n1` [Compound 211, 6-((2-methoxyethyl)(methyl)amino)-N-(1-methylindolin-6-yl)-2-morpholinopyrimidine-4-carboxamide], the IC50 is less than 1000 nM.

Consider `CNCCOc1cc(NC(=O)Nc2cccc(C)c2)nc(N2CCOCC2)n1` [Compound 10, 1-[6-(2-Methylamino-ethoxy)-2-morpholin-4-yl-pyrimidin-4-yl]-3-m-tolyl-urea], for which the concentration for half-maximal inhibition (IC50) is less than 1000 nM.

In the case of `CONc1cc(C(=O)Nc2ccc3[nH]c(C)c(C)c3c2)nc(N2CCOCC2)c1` [Compound 161, 4-Methoxyamino-6-morpholin-4-yl-pyridine-2-carboxylic acid (2,3-dimethyl-1H-indol-5-yl)-amide], the IC50 was less than 1000 nM.

For `COC(=O)NCCOc1cc(C(=O)Nc2ccc3[nH]c(C)c(C)c3c2)nc(N2CCOCC2)n1` [Compound 294, {2-[6-(2,3-Dimethyl-1H-indol-5-ylcarbamoyl)-2-morpholin-4-yl-pyrimidin-4-yloxy]-ethyl}-carbamic acid methyl ester], the IC50 is less than 1000 nM.

Consider `COCCN(C)c1cc(C(=O)Nc2nc3cc(C)c(C)cc3s2)nc(N2CCOCC2)n1` [Compound 203, N-(5,6-dimethylbenzo[d]thiazol-2-yl)-6-((2-methoxyethyl)(methyl)amino)-2-morpholinopyrimidine-4-carboxamide], for which the 50% inhibitory concentration (IC50) was not below 1000 nM.

For `O=C(Nc1cccc(I)c1)Nc1cc(OCCN2CCOCC2)nc(N2CCOCC2)n1` [Compound 130, 1-(3-Iodo-phenyl)-3-[2-morpholin-4-yl-6-(2-morpholin-4-yl-ethoxy)-pyrimidin-4-yl]-urea], the 50% inhibitory concentration (IC50) was less than 1000 nM.

With `Cc1ccc2nc(NC(=O)c3cc(N4CCOCC4)nc(OCCc4ccccn4)n3)sc2c1` [Compound 64, 6-Morpholin-4-yl-2-(2-pyridin-2-yl-ethoxy)-pyrimidine-4-carboxylic acid (6-methyl-benzothiazol-2-yl)-amide], the half-maximal inhibitory concentration (IC50) was not below 1000 nM.
